Design in all cases: species or system Acyrthosiphon pisum
Assay [1] has as its target T1, A. pisum native nAChRs, [125I]-alpha-bungarotoxin binding sites (alpha-Bgt-sensitive).
T1 construct: gene Apisumα1
Conditions: PBS pH 7.2, 0.1% BSA, room temperature, 4 h, low-affinity site, Cheng-Prusoff, table header prints nM, text and IC50 support µM.

In assay [2] the target is T2, A. pisum native nAChRs, [3H]-imidacloprid binding sites (alpha-Bgt-insensitive).
T2 construct: gene Apisumα1
Briefly: [3H]-IMI competition binding, filtration. The following applies: 25 nM [3H]-IMI, 10 mM Tris-HCl pH 7.4, room temperature, 4 h, low-affinity site; for Ki: Cheng-Prusoff, read-out: [^3H]-IMI / % of high affinity / Ki; for IC50: read-out: [^3H]-IMI / Bmax (fmol/mg) / IC50. An excerpt: [3H]-IMI competition binding, filtration on A. pisum native nAChRs, [3H]-imidacloprid binding sites (alpha-Bgt-insensitive)

For assay [3] the target is unchanged. The assay is described as follows: [3H]-IMI saturation binding, filtration. The following applies: 10 mM Tris-HCl pH 7.4, room temperature, 4 h; high-affinity site of two-site fit; labelled compound; read-out: [^3H]-IMI / Kd (nM) / assay level. An excerpt: [3H]-IMI saturation binding, filtration on A. pisum native nAChRs, [3H]-imidacloprid binding sites (alpha-Bgt-insensitive)

The mark [4] stands for this setting: apparent Ki, possibly not strictly competitive.
[5] abbreviates: possibly not strictly competitive.

SMILES strings stand for the structures. Where two headings read alike, the source gives them in different places.

`CN/C(=N\[N+](=O)[O-])NCc1cnc(Cl)s1` [clothianidin]: the Ki was 180 ± 50 nM in assay [1] (0.08 nM [125I]-alpha-Bgt) and 0.127 ± 0.0425 µM in assay [2] (setting [4]). In assay [2] (setting [5]), the IC50 came to 0.203 ± 0.068 µM.
Regarding `O=[N+]([O-])N=C1NCCN1Cc1ccc(Cl)nc1` [imidacloprid], the Kd in assay [3] was determined as 0.16 ± 0.04 nM. The Ki in assay [1] (0.6 nM [125I]-alpha-Bgt) amounted to 14600 ± 1130 nM. Further, in assay [2], the Ki amounted to 0.0381 ± 0.00688 µM and the IC50 was 0.061 ± 0.011 µM.
For `CN1COCN(Cc2cnc(Cl)s2)C1=N[N+](=O)[O-]` [thiamethoxam], the Ki in assay [1] (0.08 nM [125I]-alpha-Bgt) turned out to be 1530 ± 650 nM; in assay [2] (setting [4]) it was 1.05 ± 0.0631 µM. Also, the IC50 in assay [2] (setting [5]) was determined as 1.68 ± 0.101 µM.

The values are drawn from PMC4011867 (PLoS ONE, 2014).
